Experimental data as given in US9487561B2, “Biologically active complex and its preparation” (HAMLET PHARMA AB, priority 2010, dated 2016).
Where a chain is given by its changes, count along the chain named.

Assays:
[1] = test system: A549 lung carcinoma cells; assay: cell death assay (trypan blue exclusion, ATP levels); assay type: cell-based, human; conditions: 30 minutes pretreatment, HAMLET three hours
Procedure: (§1) Cells were detached from cell culture flasks with versen (0.2 g EDTA in 200 ml H2O and 800 ml PBS), washed with PBS and resuspended in serum-free RPMI-1640. HAMLET dissolved in PBS was incubated with cells (0.5×10^6/ml for A549, A498 and HeLa cells; 1×10^6/ml for Jurkat) at 37° C. FCS was added after 1 hour. Cell death was quantified by trypan blue exclusion (Chroma Gesellschaft Schmid & Co) or by measuring ATP levels (ATPlite Kit, PerkinElmer, Infinite 200, Tecan). Light images were captured using the HOLOMONITOR™ M2 digital holographic microscope (Phase Holographic Imaging AB, Lund, Sweden).
For studies with inhibitors, cells were pretreated for 30 minutes. Inhibitors used were Gadolinium chloride (GdCl3, 100 μM), Barium chloride (BaCl2, 1 mM), Ruthenium red (30 μM), tetrandrine (10 μM) and amiloride (1 mM), all from Sigma Aldrich. For p38 inhibition, SB202190 (20 μM, Sigma Aldrich) or BIRB796 (10 μM, Axon Medchem) dissolved in DMSO was used. The wells were washed twice with PBS and new medium with inhibitor was added. For RNA interference, FlexiTube siRNA Premixes against MAPK11 (SI00606053), MAPK14 (SI00300769) and All Star Negative Control siRNA (SI03650318) from Qiagen was used. A549 forward was transfected using 25 nM final siRNA concentration in 24-well plate. After 48 hours, knockdown was examined by Western blot (anti-p38, 1:1000, Cell Signaling) and RT-PCR (MAPK14, QT00079345, QIAGEN).
To examine if functional ion channels are important for the tumoricidal activity of HAMLET, A549 lung carcinoma cells in suspension were pretreated with the channel inhibitors for 30 minutes and exposed to increasing concentrations of HAMLET for three hours.
A549 cells were seeded to a density of 0.8-1.0×10^6 cells/well in RPMI without FCS. Different volumes of HAMLET/oleate and oleic acid solutions were added. The cells were incubated for 1 hour at 37° C. 5% CO2 for 1 hour before 50 μl of FCS (5% final concentration) were added to the wells. The cells were then further incubated for additional 2 hours before the viability were determined by trypan blue exclusion and ATP measurements.

[2] = test system: lung carcinoma, kidney carcinoma and lymphoma cells; assay: HAMLET-induced change in cell morphology (light microscopy, real-time imaging); assay type: cell-based; conditions: light microscopy
Procedure: as §1
For live cell imaging, cells were pre-treated with SB202190 for 30 minutes, nuclei were stained with Hoechst 33342 (Invitrogen) and Alexa-Fluor 568-labeled HAMLET (10% labeled HAMLET, Molecular Probes) was added in serum-free medium. FCS was added after 1 hour. Fluorescence was detected with pinhole settings corresponding to 1 airy unit. The cells were kept at 37° C., 5% CO2 and examined unfixed by LSM510 DUO confocal microscopy (Carl Zeiss).
To examine if the HAMLET-induced change in carcinoma cell morphology was modified by the channel inhibitors, lung carcinoma, kidney carcinoma and lymphoma cells were exposed to HAMLET in the presence or absence of ion channel inhibitors and examined by light microscopy (FIG. 2C).
To determine if p38 signaling was involved in cell death, we inhibited p38α and p38β in lung and kidney carcinoma and Jurkat lymphoma cells with two small-molecule p38 inhibitors: SB202190, a highly specific pyridinyl-imidazole inhibitor; and BIRB796, a diaryl urea compound, which bears little structural similarity to SB202190 (Fabian et al., 2005, Nature Biotechnology 23: 329-336), ([…] and FIG. 12B). […] The effect of p38 inhibition on cell death was also observed by real-time confocal imaging of lung carcinoma cells exposed to fluorescently labeled HAMLET.

[3] = test system: tumor cells; assay: ion fluxes (Ca^2+, K^+, Na^+) quantified by fluorometry; assay type: cell-based; conditions: for fluxes of Ca^2+, K^+ and Na^+: FIG. 1B
Procedure: FIG. 1. […] (A, upper panels) Bright-field micrographs showing glass-adherent egg yolk vesicles before and after a 40-minute exposure to HAMLET, α-lactalbumin (HLA) or oleic acid (OA). Morphology was recorded by differential interference contrast microscopy. Scale bar […]. […] (A, lower panels) Effect of HAMLET on PMVs from lung carcinoma cells. PMVs on glass-bottom dishes were exposed to HAMLET, HLA or OA and stained with Nile red for confocal microscopy. […] As a control PMVs from healthy, differentiated cells on glass-bottom dishes were also exposed to HAMLET and stained with Nile red.
FIG. 7. Ion Fluxes. (A) Ion fluxes induced by HAMLET (35 μM) or it constituents (35 μM All-ala α-lactalbumin or 175 μM sodium oleate) were quantified by fluorometry, as described. […] (B) The global transcriptional response to HAMLET was studied by microarray and the top 3000 genes by variance visualized in a Heatmap. […] Darker bands=high expression, lighter bands=low.
(§2) The FLUXOR™ potassium (K^+) channel assay was performed on the TECAN infinite F200 (Tecan Group, Switzerland), according to the manufacturer's instructions (Invitrogen). Briefly, this involved FLUXOR™ loading buffer (Hank's Balanced Saline Solution, (HBSS) buffered with 20 mM HEPES and pH adjusted to 7.4 with NaOH. POWERLOAD™ concentrate and water-soluble Probenecid were used respectively to enhance the dye solubility and retention, respectively. Media were removed from the cell plates manually, and 80 μL of loading buffer containing the FLUXOR™ dye mix was applied to each well. Once inside the cell, the nonfluorescent AM ester form of the FLUXOR™ dye is cleaved by endogenous esterases into a thallium-sensitive indicator. The dye was loaded for 60 minutes at room temperature and then removed with the supernatant. After washing with dye-free PBS buffer, a final volume of 80 μL assay buffer containing water-soluble probenecid was added. Cells received one of the following channel inhibitors: 3.3 μL per well of 30 mM amiloride, 3.0 μL of 32 mM BaCl2, 1.8 μL of 5.4 mM gadolinium, 3 μL 3.2 mM tetrandrine and 2.3 μL of 2.6 mM ruthenium red, and were then incubated at room temperature (23-25° C.) for 30 minutes to allow equilibration of the test compounds. Prior to injection, stimulation buffer was prepared from the chloride-free buffer and thallium reagents provided in the kit as well as HAMLET, to achieve a final added concentrations of 2 mM free Tl+ and 35 μM HAMLET after 1:5 dilution upon injection of the stimulus buffer onto cells that had been loaded with FLUXOR™ dye.

[4] = test system: A549 lung carcinoma cells; assay: global transcriptional response, whole genome arrays (Affymetrix); assay type: cell-based, human; conditions: Example 5, Affymetrix U219, adjusted p-value <0.05 and log 2-foldchange of 1
Procedure: For the microarray analysis with ion channel inhibitors, 200,000 A549 cells/well were allowed to adhere overnight on a 6-well plate. After 1 hour of HAMLET treatment, the cells were lysed and RNA was extracted using the RNeasy Mini Kit (QIAGEN). The samples were sent to AROS Applied Biotechnology (Århus, Denmark) for analysis. Data was preprocessed using RMA implemented in the free software packages “affy” as provided by R and Bioconductor (<www.r-project.org>). Differentially expressed genes were identified using empirically Bayes adjusted t-statistics and characterized using the Functional Annotation Clustering Tool in the Database for Annotation, Visualization and Integrated Discovery (DAVID), (Dennis et al., 2003 Genome Biology 4(5): P3) and Ingenuity Pathway Analysis (Ingenuity Systems). All microarray data were registered into NCBI's Gene Expression Omnibus (GEO) database (<www.ncbi.nlm.nih.gov/projects/geo>) with accession numbers GSE23772.
To understand the mechanisms of carcinoma cell death and the contribution of ion channel activation, the global transcriptional response to HAMLET was examined, using whole genome arrays. A549 lung carcinoma cells were exposed to HAMLET (21 μM) for one hour and cells pretreated with amiloride were compared to cells in medium alone. […] An unbiased global overview of transcription was obtained by performing a hierarchical clustering of the top 3000 genes by variance and was visualized in a heatmap (FIG. 2D and FIG. 13). Genes with empirical Bayes adjusted p-values <0.05 and log 2 fold changes >1 were considered differentially expressed and were functionally characterized using Database for Annotation, Visualization and Integrated Discovery, (Dennis et al., supra, 2003) and Ingenuity Pathway Analysis.
In total 12 RNA samples were generated (triplicate of control, oleic Acid, HAMLET, and oleate-treated) and hybridized to Affymetrix Whole Genome microarrays U219. […] For statistical analysis normalized data were linear model fitted and Empirical Bayesian analysis, coupled with p-value adjustment, performed.

[5] = test system: potassium channels in A549, lung carcinoma cell lines; assay: FLUXOR potassium (K^+) channel assay, Thallium (Tl^+) indicator; assay type: cell-based, human; conditions: HAMLET 35 μM; oleate 175 μM (5× the HAMLET concentration); peptides mixed with oleate and immediately added
Procedure: as §2
To distinguish Ca^2+ mobilization from intracellular stores from the influx of extracellular Ca^2+, EGTA was then added to the cell medium. […] K^+ fluxes across tumor cell membranes were subsequently quantified under the same experimental conditions, using the fluorophore FLUXOR™, which fluoresces after thallium has entered cells through K^+ channels.
Potassium channel activity was therefore measured in A549, lung carcinoma cell lines using an indicator, which emits fluorescence signal upon entering the cells via opened potassium channels, Thallium (Tl^+) indicator (FIG. 18).

[6] = test system: tumor cells; assay: Tumoricidal Activity of Oleate-HAMLET (cell death method of Example 1); assay type: cell-based
[7] = 35 μM All-ala α-lactalbumin or 175 μM sodium oleate, FIG. 7A

## N.N.N.N.N.N.N.N.N.N.N.N.N.N.[Cl-].[Cl-].[Cl-].[Cl-].[Cl-].[Cl-].[O-2].[O-2].[Ru+3].[Ru+3].[Ru+4] [Ruthenium red, ammoniated ruthenium oxychloride]
[1]
  effect of channel inhibitor on HAMLET-induced cell death: no effect on viability
[2]
  effect of ion channel inhibitor on HAMLET-induced change in cell morphology: did not prevent the morphological changes

## CCCCCCCC/C=C\CCCCCCCC(=O)O [oleic acid, reference compound]
[3]
  fluxes of Ca^2+, K^+ and Na^+: no effect
[3]; at concentrations relevant for the HAMLET complex
  ion channel activating activity: did not show ion channel activating activity
[4]
  number of differentially expressed genes: two

## Alpha 1: α-lactalbumin peptide, residue 1-40 (EQLTKCEVFRELKDLKGYGGVSLPEWVCTTFHTSGYDTQA; UniProt P00711 20-59, looked up, fragment)
[5]
  potassium channel activity (fluorescence signal): did not open potassium channels

## Alpha 2: α-lactalbumin peptide, residue 81-123 (LDDDLTDDIMCVKKILDKVGINYWLAHKALCSEKLDQWLCEKL; UniProt P00711 100-142, looked up, fragment)
[5]
  potassium channel activity (fluorescence signal): did not open potassium channels

## Beta: α-lactalbumin peptide, residue 41-80 (IVQNNDSTEYGLFQINNKIWCKDDQNPHSSNICNISCDKF; UniProt P00711 60-99, looked up, fragment)
[5]
  potassium channel activity (fluorescence signal): did not open potassium channels

B1: α-lactalbumin: native α-lactalbumin purified from human milk (protein, UniProt P00709 20-142, looked up)
Alpha-lactalbumin: KQFTKCELSQLLKDIDGYGGIALPELICTMFHTSGYDTQAIVENNESTEYGLFQISNKLWCKSSQVPQSRNICDISCDKFLDDDITDDIMCAKKILDIKGIDYWLAHKALCTEKLEQWLCEKL
[3]
  fluxes of Ca^2+, K^+ and Na^+: no effect

B2: Oleate-HAMLET: complex from EDTA treated alphalactalbumin converted on a column conditioned with sodium oleate (protein, UniProt P00709 20-142, looked up)
Alpha-lactalbumin: B1 Alpha-lactalbumin
modifications: sodium oleate complex
[6]
  tumoricidal activity compared with OA complex: at least as tumoricidal as the OA complex
[6]; 0.5 mg/ml, Control 88
  Trypan blue: 1
[6]; 0.5 mg/ml, Control 100
  ATP Activity: 27%

B3: α-lactalbumin^all-ala mutant: partially unfolded α-lactalbumin with all cysteines mutated to alanine (SEQ ID NO: 1 / 2) (protein)
chain 1: B1 Alpha-lactalbumin with C6A, C28A, C61A, C73A, C77A, C91A, C111A, C120A
chain 2: MKQFTKAELSQLLKDIDGYGGIALPELIATMFHTSGYDTQAIVENNESTEYGLFQISNKLWAKSSQVPQSRNIADISADKFLDDDITDDIMAAKKILDIKGIDYWLAHKALATEKLEQWLAEKL
[3]; [7]
  K^+ fluxes: comparable to HAMLET
  Na^+ or Ca^2+ fluxes: weaker
